# Source: patent US20240294489A1 (Captor Therapeutics S.A., priority 2020, published 2024)
# Experiments:
# Format in all cases: cell-based
# Hep3B cells = experiment: Cell viability CTG assay, Hep3B; conditions: Homo sapiens, 72 h, 0.001-50 μM, read-out: Hep3B Geomean absolute IC50 by molecule, 72 H
# How it was run: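 Cells exposed to compound at 0.25% v/v DMSO for 72 h (37° C., 5% CO2). ATP quantified by CellTiter-Glo luminescence, normalized to DMSO control. Absolute IC50 (T/C=50%) by non-linear regression on duplicate means; geometric mean used for averages.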
# OCI-AML2 = experiment: Cell viability, additional cell lines (CellTiter-Glo), OCI-AML2; conditions: Homo sapiens, OCI-AML2, 72 h; read-out: Absolute IC50
# Description: (§1) Tumor cells are grown at 37° C. in a humidified atmosphere with 5% CO2 in RPMI 1640 medium, supplemented with 10% (v/v) fetal calf serum and 50 μg/ml gentamicin for up to 20 passages, and are passaged once or twice weekly.
# (§2) Cells are harvested from exponential phase cultures, counted and plated in 96 well flat-bottom microtiter plates at a cell density depending on the cell line's growth rate (4,000-20,000 cells/well depending on the cell line's growth rate, up to 60,000 for hematological cancer cell lines) in RPMI 1640 medium supplemented with 10% (v/v) fetal calf serum and 50 μg/ml gentamicin (140 μl/well). Cultures are incubated at 37° C. and 5% CO2 in a humidified atmosphere. After 24 h, 10 μl of test compounds or control medium are added and left on the cells for another 72 h. Compounds are serially diluted in DMSO, transferred in cell culture medium, and added to the assay plates by using a Tecan Freedom EVO 200 robotic platform. The DMSO concentration is kept constant at 0.3% v/v across the assay plate. Viability of cells is quantified by the CellTiter-Glo® cell viability assay (Promega G8462). After incubation of cells, 100 μl of CellTiter-Glo® One Solution Assay reagent are added to each well. Plates are shaken for 2 minutes to induce cell lysis and incubated for 20 minutes prior to reading luminescence (LU) by using the EnVision® Xcite multilabel plate reader (Perkin Elmer). […]
# HL-60 = experiment: Cell viability, additional cell lines (CellTiter-Glo), HL-60; conditions: Homo sapiens, HL-60, 72 h; read-out: Absolute IC50
# Description: as §1, §2
# LP-1 = experiment: Cell viability, additional cell lines (CellTiter-Glo), LP-1; conditions: Homo sapiens, LP-1, 72 h; read-out: Absolute IC50
# Description: as §1, §2
# Aiolos (IKZF3) = target: T1, Aiolos (IKZF3) (Homo sapiens, UniProt Q96SW2+Q9UKT9); experiment: Aiolos degradation assay, H929 cell line; conditions: H929 cells, 20 μM, 24 h
# T1 construct: Aiolos degradation in the H929 cell line was investigated; endogenous in cells; host or cells: H929
# Description: Cells were seeded on 6- or 12-well plates, and the compounds to be tested were added at the desired concentration range. […] After 24 h incubation (37° C., 5% CO2), cells were harvested, washed and cell lysates were prepared using RIPA lysis buffer. The amount of protein was determined via BCA assay, and the appropriate quantity was then loaded on the precast gel for the protein separation. After primary and secondary Ab staining, the membranes were washed and signals developed. The densitometry analysis was implemented to obtain the numeric values used later in the protein level evaluation process.
# Kelly cells = experiment: Cell survival clonogenic assay, Kelly; conditions: 0.1-10 μM, crystal violet staining after 9-10 days
# Description: To determine the ability of a single cell to form a colony (defined as a cluster of at least 50 cells), Kelly and Hep3B cells were maintained in RPM11640 (Kelly) or EMEM (Hep3B) medium, supplemented with penicillin/streptomycin and 10% FBS. The cells were counted and seeded on the 6-well plates, at the density of 1×10^3 cells per well, the compounds to be tested were added at the desired concentration range, and the cells were cultured at 37° C./5% CO2. After colony formation (9-10 days), the cells were washed and treated with 6.0% glutaraldehyde and 0.5% crystal violet mix for 30 min., followed by rinsing with water and drying at room temperature (RT).
# UOC-M1 = experiment: Cell viability, additional cell lines (CellTiter-Glo), UOC-M1; conditions: UOC-M1, 72 h
# Description: as §1, §2
# 22Rv1 = experiment: Cell viability, additional cell lines (CellTiter-Glo), 22Rv1; conditions: Homo sapiens, 22Rv1, 72 h
# Description: as §1, §2
# Ikaros (IKZF1) = target: T2, Ikaros (IKZF1) (Homo sapiens, UniProt Q13422+Q96SW2); experiment: Ikaros degradation assay, H929 cell line; conditions: NCI-H929, H929 cells, 24 h, read-out: % of IKZF1 protein reduction
# T2 construct: Ikaros degradation in the H929 cell line was investigated; endogenous in cells; host or cells: H929
# How it was run: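 Cells were exposed to test compounds over a concentration range for 24 h at 37° C, 5% CO2, then lysed in RIPA buffer. Equal protein (BCA) was resolved by SDS-PAGE and immunoblotted. Band densitometry gave the protein levels used for evaluation.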
# MOLT-3 = experiment: Cell viability, additional cell lines (CellTiter-Glo), MOLT-3; conditions: Homo sapiens, MOLT-3, 72 h
# Description: as §1, §2
# [1] = 9.5 μM, read-out: Test/Control viability at 9.5 μM
# T2 sequence (Q13422 whole entry): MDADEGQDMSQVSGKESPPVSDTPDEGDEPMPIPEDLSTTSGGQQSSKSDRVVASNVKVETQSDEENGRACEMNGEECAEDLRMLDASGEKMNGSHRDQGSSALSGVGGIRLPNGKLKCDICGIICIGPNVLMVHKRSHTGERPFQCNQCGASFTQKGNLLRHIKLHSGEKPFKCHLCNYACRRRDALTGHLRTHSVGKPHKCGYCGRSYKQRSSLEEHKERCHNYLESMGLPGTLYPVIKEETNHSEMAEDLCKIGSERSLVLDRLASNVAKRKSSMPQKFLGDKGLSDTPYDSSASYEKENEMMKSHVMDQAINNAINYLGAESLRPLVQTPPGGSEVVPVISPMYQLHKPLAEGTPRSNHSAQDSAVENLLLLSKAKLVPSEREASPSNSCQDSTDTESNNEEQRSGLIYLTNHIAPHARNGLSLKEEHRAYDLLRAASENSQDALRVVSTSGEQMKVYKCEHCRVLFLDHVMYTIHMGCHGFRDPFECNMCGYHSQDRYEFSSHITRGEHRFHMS
# T2 sequence (Q96SW2 whole entry): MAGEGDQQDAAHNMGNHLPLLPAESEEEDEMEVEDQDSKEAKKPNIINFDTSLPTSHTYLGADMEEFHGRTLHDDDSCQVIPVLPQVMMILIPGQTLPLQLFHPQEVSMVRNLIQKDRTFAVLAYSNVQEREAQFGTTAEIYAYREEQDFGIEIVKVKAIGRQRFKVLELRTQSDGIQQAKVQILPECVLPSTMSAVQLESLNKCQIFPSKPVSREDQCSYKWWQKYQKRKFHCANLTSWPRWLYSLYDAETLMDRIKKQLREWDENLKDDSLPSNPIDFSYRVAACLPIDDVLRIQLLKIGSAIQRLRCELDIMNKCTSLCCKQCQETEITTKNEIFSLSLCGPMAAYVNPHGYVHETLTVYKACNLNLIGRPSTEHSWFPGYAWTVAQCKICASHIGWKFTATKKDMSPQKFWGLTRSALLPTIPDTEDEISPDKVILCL
# T2 sequence (Q16531 whole entry partner): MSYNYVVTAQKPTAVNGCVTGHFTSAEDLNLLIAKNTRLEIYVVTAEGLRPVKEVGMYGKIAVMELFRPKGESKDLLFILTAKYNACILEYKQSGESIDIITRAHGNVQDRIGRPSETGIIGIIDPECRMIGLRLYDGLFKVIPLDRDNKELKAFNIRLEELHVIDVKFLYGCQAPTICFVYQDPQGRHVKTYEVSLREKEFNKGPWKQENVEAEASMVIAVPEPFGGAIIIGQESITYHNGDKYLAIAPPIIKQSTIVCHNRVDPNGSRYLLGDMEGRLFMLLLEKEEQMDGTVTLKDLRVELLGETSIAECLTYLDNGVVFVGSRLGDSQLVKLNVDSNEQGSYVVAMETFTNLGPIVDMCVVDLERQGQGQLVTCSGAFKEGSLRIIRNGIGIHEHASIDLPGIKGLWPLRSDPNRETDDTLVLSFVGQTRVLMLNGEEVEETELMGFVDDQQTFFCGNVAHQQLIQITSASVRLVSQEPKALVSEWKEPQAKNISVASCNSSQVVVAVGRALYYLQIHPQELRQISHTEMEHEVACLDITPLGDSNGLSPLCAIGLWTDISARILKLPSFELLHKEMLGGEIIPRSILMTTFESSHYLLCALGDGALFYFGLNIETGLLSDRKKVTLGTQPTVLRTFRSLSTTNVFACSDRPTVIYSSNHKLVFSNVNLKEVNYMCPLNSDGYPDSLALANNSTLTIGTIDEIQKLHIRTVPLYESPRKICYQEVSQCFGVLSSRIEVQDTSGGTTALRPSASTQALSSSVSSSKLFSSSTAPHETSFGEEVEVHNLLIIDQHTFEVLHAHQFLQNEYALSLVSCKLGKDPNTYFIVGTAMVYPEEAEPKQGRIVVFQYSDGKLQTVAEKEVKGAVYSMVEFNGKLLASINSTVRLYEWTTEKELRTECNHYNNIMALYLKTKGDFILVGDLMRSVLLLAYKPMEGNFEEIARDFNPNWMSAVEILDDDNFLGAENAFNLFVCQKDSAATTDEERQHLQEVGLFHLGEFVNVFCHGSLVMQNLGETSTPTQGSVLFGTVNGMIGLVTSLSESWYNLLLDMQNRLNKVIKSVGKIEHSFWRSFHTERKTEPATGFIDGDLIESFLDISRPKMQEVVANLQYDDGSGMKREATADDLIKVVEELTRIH
# T1 sequence (Q9UKT9 whole entry): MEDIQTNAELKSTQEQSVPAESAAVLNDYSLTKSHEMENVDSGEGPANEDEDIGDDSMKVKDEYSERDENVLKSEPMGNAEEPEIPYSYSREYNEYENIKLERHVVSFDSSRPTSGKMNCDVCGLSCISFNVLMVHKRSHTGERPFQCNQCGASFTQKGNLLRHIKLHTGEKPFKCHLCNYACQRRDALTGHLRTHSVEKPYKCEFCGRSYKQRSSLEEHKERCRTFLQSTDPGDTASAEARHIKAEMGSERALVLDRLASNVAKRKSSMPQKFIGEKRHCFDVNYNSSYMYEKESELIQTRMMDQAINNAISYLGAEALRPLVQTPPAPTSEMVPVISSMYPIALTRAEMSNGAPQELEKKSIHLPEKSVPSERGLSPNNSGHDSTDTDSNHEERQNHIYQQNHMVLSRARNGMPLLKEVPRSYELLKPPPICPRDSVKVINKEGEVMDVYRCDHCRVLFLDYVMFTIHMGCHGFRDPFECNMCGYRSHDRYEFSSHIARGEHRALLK
# T1 sequence (Q96SW2 whole entry): as the sequence (Q96SW2 whole entry) above
# T1 sequence (Q16531 whole entry partner): as the sequence (Q16531 whole entry partner) above
smiles,measurement,setting,value
"NCc1ccc2c(c1)CN(C1CCC(=O)NC1=O)C2=O (centres unmarked) [Compound 1, 3-(5-(aminomethyl)-1-oxoisoindolin-2-yl)piperidine-2,6-dione]",IC50,Hep3B cells,≤ 0.1 µM
same,IC50,OCI-AML2,> 30 µM
same,IC50,HL-60,> 30 µM
same,IC50,LP-1,> 30 µM
same,% of IKZF3 protein reduction,Aiolos (IKZF3),C (C represents 0-24% of IKZF1 protein reduction)
same,survival of the cells (colony formation),Kelly cells,in most cases inhibited
same,viability at 9.5 µM,UOC-M1; [1],≤ 30%
same,IC50,UOC-M1; read-out: Absolute IC50,≤ 0.1 µM
same,IC50,22Rv1; read-out: Absolute IC50,≥ 30 µM
same,viability at 9.5 µM,22Rv1; [1],≤ 60%
same,inhibition at 10 µM,Ikaros (IKZF1); 10 uM,0 to 24%
same,inhibition at 20 µM,Ikaros (IKZF1); 20 uM,0 to 24%
same,IC50,MOLT-3; read-out: Absolute IC50,≥ 30 µM
same,viability at 9.5 µM,MOLT-3; [1],≤ 60%
